Test system: Orientia tsutsugamushi
Assay: Antimicrobial activity against doxycyclin-resistant Orientia tsutsugamushi in patient of scrub typhus assessed as recovery from infection
Type: functional

Work on `CC[C@H]1OC(=O)[C@H](C)C(=O)[C@H](C)[C@@H](O[C@@H]2O[C@H](C)C[C@H](N(C)C)[C@H]2O)[C@](C)(OC)C[C@@H](C)C(=O)[C@H](C)[C@H]2N(CCCCn3cnc(-c4cccnc4)c3)C(=O)O[C@]12C` [TELITHROMYCIN] yielded an Activity of 100%.
In the case of `C[C@H]1c2cccc(O)c2C(=O)C2=C(O)[C@]3(O)C(=O)C(C(N)=O)=C(O)[C@@H](N(C)C)[C@@H]3[C@@H](O)[C@@H]21.O` [DOXYCYCLINE], the Activity is reported as 97.8%.
